Results taken from publication PMC7031697, “Mechanism of Activation of AMPK by Cordycepin” (Cell Chemical Biology, 2020).

Test system: HepG2 cells
Experiment: MTT assay for cell proliferation
Format: cell-based, human
Experimental: After treatment for the specified time, the effect of cordycepin on cell proliferation was determined using the MTT assay kit (Abcam, ab211091) as per manufacturers’ instructions.

## Nc1ncnc2c1ncn2[C@@H]1O[C@H](CO)C[C@H]1O [cordycepin, 3′-deoxyadenosine]
30 μM, after 72 h
  effect on cell proliferation: only very small effects
100 μM, after 72 h
  decrease in cell proliferation: 30%
300 μM
  effect on cell proliferation: completely prevented cell proliferation
1 mM
  effect on cell proliferation: completely prevented cell proliferation
